Format in all cases: physicochemical
A short description of data set [1]: Intrinsic dissolution, USP 28 method <1087>. Particulars: isotonic 50 mM acetate (pH 4.5) buffer at 37° C., 50 rpm. How it is done:
The intrinsic dissolution (Table 3) was determined using USP 28 method <1087> (United States Pharmacopeia, The National Formulary, USP 28, 28th edition, Rockville, […]., 2005). Preparation of each test sample was performed as per USP 28 method <1087> by weighing and transferring the material to the die cavity and compressing for 1 minute at the minimum compression pressure necessary to form a nondisintegrating compacted pellet. The dissolution media used was isotonic 50 mM acetate buffer (pH 4.5) at 37° C. and speed was set at 50 rpm. Each run was halted at 5 min, irrespective of the percent dissolved. Each salt was run in duplicate.

A short description of data set [2]: Tablet dissolution over time at various pH. Particulars: for Dependence of dissolution on pH: oral dosage form, media pH 1 to 6.8 and deionized water. How it is done:
Dissolution over time of eszopiclone free base at various pHs (FIG. 1) was compared to that of eszopiclone maleate salt (FIG. 2) in dissolution media at various pH values using Hanson Research SR8-Plus Dissolution Apparatus and C-Technologies Fiber Optic UV Probes at 305 nm (excipients subtracted at 410 nm). The dissolution media used were (a) pH 1 (0.1N HCl) 50 ml of conc HCl mixed in 6 L of water; (b) pH 4.5 acetate buffer (20 mM) 5.88 g of sodium acetate trihydrate dissolved in 6 L of water, pH adjusted to 4.5 with acetic acid; (c) pH 5.5 phosphate buffer (20 mM) 16.3 g of potassium dihydrogen phosphate in 6 L of water. pH adjusted to 5.5 with NaOH; (d) pH 6.8 phosphate buffer (20 mM) 16.3 g of potassium dihydrogen phosphate in 6 L of water. pH adjusted 6.8 with NaOH. A standard dissolution protocol was used. The standard solution (0.006 mg/mL of eszopiclone free base) was prepared by weighing a known amount (˜20 mg) of the free base into a 100 mL volumetric flask. 10 mL of acetonitrile was added into the flask and sonicated until the solids dissolved completely. The solution was cooled to room temperature and made up to the 100 mL mark using media and mixed well. Dilute 3 mL to 100 mL using media. The tables were prepared by transferring 500 mL dissolution media into the 6 vessels. Blank readings were taken for all the probes using media. Standards were read for individual vessels. Probes were washed with media and then inserted back into each vessel. One tablet was transferred into each vessel. The dissolution program was started immediately and readings were taken at 305 nm for 60 min (every 1 min for 20 min and then every 10 min).
FIG. 1 depicts dissolution profiles of the eszopiclone free base at pH 1 (0.1N HCl), pH 4.5 in buffer, pH 5.5 in buffer, pH 6.8 in buffer and in deionized water. […] FIG. 2 depicts dissolution profiles of the eszopiclone maleate salt at pH 1 (0.1N HCl), pH 4.5 in buffer, pH 5.5 in buffer, pH 6.8 in buffer and in deionized water. It can be seen that the dissolution is greater than 50% within five minutes and greater than 80% at one hour at all pH.

A short description of data set [3]: Aqueous solubility (24 hour equilibrated suspension in water, HPLC). Particulars: for pH measured at saturation: saturated suspension in water. As for the experimental part: The aliquot was diluted and analyzed by HPLC (Waters). The data was compared to a standard curve generated from a set of solutions of known concentrations. The standard curve and the samples were analyzed using a HPLC using the following conditions: […]

[4] abbreviates: all pH (pH 1, 4.5, 5.5, 6.8, deionized water).

Structures are written as SMILES.

Regarding `CN1CCN(C(=O)O[C@H]2c3nccnc3C(=O)N2c2ccc(Cl)cn2)CC1` [Free base, [(9S)-8-(5-chloropyridin-2-yl)-7-oxo-2,5,8-triazabicyclo[4.3.0]nona-1,3,5-trien-9-yl]4-methyl piperazine-1-carboxylate], in data set [1], the “Intrinsic dissolution Average” value turned out to be 0.5 mgA/cm^2/min, the “Intrinsic dissolution Run 1” value is 0.6 mgA/cm^2/min and the “Intrinsic dissolution Run 2” value came out at 0.5 mgA/cm^2/min. Moreover, the “Part of tablet dissolved at one hour” value in data set [2] (deionized water) was “less than one half”. For the same compound, the “Dependence of dissolution on pH” value in data set [2] is listed as “decreases markedly as the pH rises”. In addition, the Dissolution of tablet result in data set [2] (pH 1 (0.1N HCl)) was “rapid and complete”. Also, in data set [2] (pH 6.8 buffer), the “Part of tablet dissolved at one hour” value is “less than one half”. The “pH measured at saturation” value in data set [3] came to 7.6. For the same compound, the Solubility in data set [3] (water, 24 hour at ambient) is 0.2^1 mgA/mL.

By thermodynamic solubility is commonly meant solubility found after equilibrating the solid with the medium. Turning to `CN1CCN(C(=O)O[C@H]2c3nccnc3C(=O)N2c2ccc(Cl)cn2)CC1.O=C(O)/C=C\C(=O)O` [Maleate, (S)-Zopiclone Maleate], in data set [1], the “Intrinsic dissolution Average” value stood at 1.3 mgA/cm^2/min, the “Intrinsic dissolution Run 1” value was determined as 1.4 mgA/cm^2/min and the “Intrinsic dissolution Run 2” value came out at 1.2 mgA/cm^2/min. Besides, in data set [2] (setting [4]), the “Dissolution at one hour” value is listed as “greater than 80%” and the “Dissolution within five minutes” value is given as “greater than 50%”. Also, the “Dependence of dissolution on pH” value in data set [2] was “dissolve quickly and at substantially the same rate, regardless of the pH”. In data set [3], the “pH measured at saturation” value stood at 4.4. Moreover, in data set [3] (water, 24 hour at ambient), the thermodynamic solubility at 24 h worked out at 9000 µg/mL.

The values above are taken from US8212036B2, “Maleate salts of 6-(5-chloro-2-pyridyl)-5-[(4-methyl-1-piperazinyl)carbonyloxy]-7-oxo-6,7-dihydro-5H-pyrrolo[3,4-b]pyrazine” (Sunovion Pharmaceuticals Inc., priority 2007, dated 2012).
